In patent US11945784B2, “IRE1 small molecule inhibitors” (Cornell University, priority 2018, dated 2024):

Legend:
IRE1α [1] = molecular target: T1, IRE1α (Homo sapiens (Human), UniProt O75460); assay: In vitro luciferase assay (IRE1α Endoribonuclease Nanoluciferase Assay); type: cell-based; conditions: 293T cells, XBP1 luciferase reporter
Method: Compounds disclosed herein were assessed for disruption of IRE-1 signaling using a IRE1α Endoribonuclease Nanoluciferase Assay. Briefly, 2.5×10^6 293T cells were seeded in a 10 cm^2 tissue culture plate. About 24 hours later, the cells were transfected with Effectene. In a 15 mL Tube, the following was added: 2 μg XBP1 luciferase reporter plasmid (PGK-Luc2-P2A-XBP1u-Nanoluciferase-PEST); 300 μl EC buffer; and 16 μl Enhancer, followed by incubation at room temp for 5 minutes. Next, 60 μl Effectene (Qiagen 301427) was added, followed by incubation at room temperature for 10 minutes. 2.6 mL cDMEM media was added. Old media was aspirated from the cells, followed by addition of 7 mL fresh media. Full transfection mixture was added dropwise to cells. Cells were incubated for 6 hours, followed by trypsinization, centrifugation and resuspension in 11 mL media. 100 uL of cells were plated per a well in a 96 well plate. A day later, ER stressors of choice+/−inhibitors were added. To harvest, media was aspirated from cells completely, then 50 uL 1× passive lysis buffer (Promega: E1941) was added per well and put on shaker (300 rpm) for 30 minutes at room temperature. Cells were centrifuged, and 15 uL sample per well was added to a new, opaque white 384 well plate (Corning 3570). 15 uL OneGlo (nanoluciferase kit, Promega N1630) was added. Plates were spun down, placed on shaker (300 rpm) for 10 minutes. Plates were read on luminometer, 1000 ms integration time per well. 15 uL Stop and Glo (nanoluciferase kit) was added. Plates were spun down, placed on shaker (300 rpm) for 10 minutes. Plates were read on luminometer, 1000 ms second integration time per well. Recordings are provided below in Table 4

IRE1α [2] = molecular target: T1, IRE1α; assay: In vitro FRET assay; type: biochemical; conditions: XBP1 RNA probe
Method: In vitro FRET assay was performed to evaluate the ability of select compounds to inhibit IRE1, the results of which are summarized in Table 3. To perform the in vitro FRET assay, 1× complete assay buffer (CAB; […], 50 mM sodium citrate pH 7.15, 1 mM magnesium acetate, 0.02% tween 20) was used to dilute SignalChem IRE1α protein to a final concentration of 2 nM. Selected compounds were serially diluted with DMSO in a non-binding black 384-well plate for a total of 15 ul in each well. 2 ul of the serially diluted compound or DMSO control were then added to new wells containing 98 ul of 1×CAB, for a total volume of 100 ul, 10 ul of which were then transferred to wells of a new plate. 5 ul of the diluted IRE1α was then added to each well. 5 ul of a […] XBP1 RNA probe was then added to each well. Fluorescence was then read over 30 minutes in kinetic mode (485/515 nm).
Two RNA probes were used, XBP1 wildtype (SEQ ID NO: 2) which is able to be spliced by active IRE1α or XBP1 mutant (SEQ ID NO: 3) which is unable to be spliced. Each probe contained a 5′ 6-FAM modification and a 3′ IOWA Black FQ modification.
A second FRET assay was performed to assess ATP-mediated inhibition. In this case, compounds and IRE1α were prepared and combined as discussed above, with the addition of ATP up to 1 mM final concentration. This mixture was incubated at room temperature for 60 minutes and then 5 ul of 400 nM XBP1 wildtype or mutant RNA probe was added. Plates were then read over 30 minutes in kinetic mode (485/515 nm) and rate of fluorescence increase calculated for different compound dilutions to determine IC50 (Table 3).

T1 sequence (O75460 19-977): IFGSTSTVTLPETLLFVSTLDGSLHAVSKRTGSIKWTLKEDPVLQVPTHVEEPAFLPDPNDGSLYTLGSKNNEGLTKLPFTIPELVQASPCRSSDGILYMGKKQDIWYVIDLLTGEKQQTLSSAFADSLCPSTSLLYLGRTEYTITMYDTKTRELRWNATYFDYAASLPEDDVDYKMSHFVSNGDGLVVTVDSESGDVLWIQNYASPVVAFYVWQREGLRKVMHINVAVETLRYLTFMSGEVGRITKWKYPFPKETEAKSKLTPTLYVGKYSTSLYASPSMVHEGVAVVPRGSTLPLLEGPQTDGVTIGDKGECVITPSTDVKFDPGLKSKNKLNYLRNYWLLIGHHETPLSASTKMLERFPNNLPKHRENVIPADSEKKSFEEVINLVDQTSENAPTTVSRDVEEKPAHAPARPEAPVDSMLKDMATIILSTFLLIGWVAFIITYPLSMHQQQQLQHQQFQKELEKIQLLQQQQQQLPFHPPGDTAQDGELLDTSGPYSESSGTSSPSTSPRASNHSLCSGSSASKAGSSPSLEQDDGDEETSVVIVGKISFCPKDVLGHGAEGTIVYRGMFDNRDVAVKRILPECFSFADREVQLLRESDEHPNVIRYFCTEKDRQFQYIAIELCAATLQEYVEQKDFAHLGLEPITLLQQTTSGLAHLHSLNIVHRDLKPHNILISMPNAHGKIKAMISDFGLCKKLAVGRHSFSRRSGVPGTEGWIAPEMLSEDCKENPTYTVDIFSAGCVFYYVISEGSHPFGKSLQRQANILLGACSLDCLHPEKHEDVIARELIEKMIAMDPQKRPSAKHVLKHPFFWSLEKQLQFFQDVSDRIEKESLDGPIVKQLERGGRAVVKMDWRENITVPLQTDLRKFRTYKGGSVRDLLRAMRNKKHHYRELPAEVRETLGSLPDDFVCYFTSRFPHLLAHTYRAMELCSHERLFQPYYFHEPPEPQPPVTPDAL

EC50 (IRE1α [1]) [nM] | IC50 (IRE1α [2]) [nM] | SMILES
50 to 100 | 1 to 5 | CCCc1nc(NC2CCC(N)CC2)ncc1/C=C/c1ccc(NS(=O)(=O)c2ccccc2Cl)cc1 (centres unmarked) [Compound 4, N-(4-((E)-2-(2-(((1r,4r)-4-aminocyclohexyl)amino)-4-propylpyrimidin-5-yl)vinyl)phenyl)-2-chlorobenzenesulfonamide]
5 to 50 | ≤ 1 | CCc1nc(NS(=O)(=O)c2cnccc2Cl)ccc1/C=C/c1cnc(NC2CCC(N(C)C)CC2)nc1 (centres unmarked) [Compound 42, 4-chloro-N-(5-((E)-2-(2-(((1r,4r)-4-(dimethylamino)cyclohexyl)amino)pyrimidin-5-yl)vinyl)-6-ethylpyridin-2-yl)pyridine-3-sulfonamide]
≤ 5 | ≤ 1 | Cc1cc(NS(=O)(=O)c2ccccc2Cl)c(F)cc1/C=C/c1cnc(NC2CCC(N(C)C)CC2)nc1 (centres unmarked) [Compound 28, 2-chloro-N-(4-((E)-2-(2-(((1r,4r)-4-(dimethylamino)cyclohexyl)amino)pyrimidin-5-yl)vinyl)-2-fluoro-5-methylphenyl)benzenesulfonamide]
5 to 50 | ≤ 1 | COc1nc(NS(=O)(=O)c2ccccc2Cl)c(F)cc1/C=C/c1cnc(NC2CCC(N(C)C)CC2)nc1 (centres unmarked) [Compound 50, 2-chloro-N-(5-((E)-2-(2-(((1r,4r)-4-(dimethylamino)cyclohexyl)amino)pyrimidin-5-yl)vinyl)-3-fluoro-6-methoxypyridin-2-yl)benzenesulfonamide]
≤ 5 | ≤ 1 | Cc1nc(NS(=O)(=O)c2ccc(F)cc2Cl)ccc1/C=C/c1cnc(NC2CCC(N(C)C)CC2)nc1 (centres unmarked) [Compound 31, 2-chloro-N-(5-((E)-2-(2-(((1r,4r)-4-(dimethylamino)cyclohexyl)amino)pyrimidin-5-yl)vinyl)-6-methylpyridin-2-yl)-4-fluorobenzenesulfonamide]
≤ 5 | ≤ 1 | COc1nc(NS(=O)(=O)c2ccc(F)cc2Cl)ccc1/C=C/c1cnc(NC2CCC(N(C)C)CC2)nc1 (centres unmarked) [Compound 32, 2-chloro-N-(5-((E)-2-(2-(((1r,4r)-4-(dimethylamino)cyclohexyl)amino)pyrimidin-5-yl)vinyl)-6-methoxypyridin-2-yl)-4-fluorobenzenesulfonamide]
100 to 10000 | ≤ 1 | CCc1cc(NS(=O)(=O)c2ccccc2Cl)cnc1CCc1cnc(NC2CCC(N)CC2)nc1 (centres unmarked) [Compound 16, N-(6-(2-(2-(((1r,4r)-4-aminocyclohexyl)amino)pyrimidin-5-yl)ethyl)-5-ethylpyridin-3-yl)-2-chlorobenzenesulfonamide]
≤ 5 | ≤ 1 | Cc1cc(NS(=O)(=O)c2ccccc2Cl)ccc1/C=C/c1cnc(NC2CCC(N)CC2)nc1 (centres unmarked) [Compound 5, N-(4-((E)-2-(2-(((1r,4r)-4-aminocyclohexyl)amino)pyrimidin-5-yl)vinyl)-3-methylphenyl)-2-chlorobenzenesulfonamide]
≤ 5 | ≤ 1 | COc1cc(NS(=O)(=O)c2ccccc2Cl)ccc1/C=C/c1cnc(NC2CCC(N(C)C)CC2)nc1 (centres unmarked) [Compound 55, 2-chloro-N-(4-((E)-2-(2-(((1r,4r)-4-(dimethylamino)cyclohexyl)amino)pyrimidin-5-yl)vinyl)-3-methoxyphenyl)benzenesulfonamide]
≤ 5 | ≤ 1 | COc1nc(NS(=O)(=O)c2cccc(Cl)c2Cl)ccc1/C=C/c1cnc(NC2CCC(N(C)C)CC2)nc1 (centres unmarked) [Compound 51, 2,3-dichloro-N-(5-((E)-2-(2-(((1r,4r)-4-(dimethylamino)cyclohexyl)amino)pyrimidin-5-yl)vinyl)-6-methoxypyridin-2-yl)benzenesulfonamide]
100 to 10000 | ≤ 1 | COc1cc(NS(=O)(=O)c2ccccc2Cl)ccc1CCc1cnc(NC2CCC(N)CC2)nc1 (centres unmarked) [Compound 15, N-(4-(2-(2-(((1r,4r)-4-aminocyclohexyl)amino)pyrimidin-5-yl)ethyl)-3-methoxyphenyl)-2-chlorobenzenesulfonamide]
5 to 50 | ≤ 1 | CN(C)C1CCC(Nc2ncc(/C=C/c3ccc(NS(=O)(=O)c4ccccc4Cl)c(F)c3)cn2)CC1 (centres unmarked) [Compound 35, 2-chloro-N-(4-((E)-2-(2-(((1r,4r)-4-(dimethylamino)cyclohexyl)amino)pyrimidin-5-yl)vinyl)-2-fluorophenyl)benzenesulfonamide]
≤ 5 | ≤ 1 | CCc1nc(NS(=O)(=O)c2ccccc2Cl)ccc1/C=C/c1cnc(NC2CCC(N(C)C)CC2)nc1 (centres unmarked) [Compound 29, 2-chloro-N-(5-((E)-2-(2-(((1r,4r)-4-(dimethylamino)cyclohexyl)amino)pyrimidin-5-yl)vinyl)-6-ethylpyridin-2-yl)benzenesulfonamide]
≤ 5 | ≤ 1 | CCN(CC)C1CCC(Nc2ncc(/C=C/c3ccc(NS(=O)(=O)c4ccccc4Cl)nc3C)cn2)CC1 (centres unmarked) [Compound 30, 2-chloro-N-(5-((E)-2-(2-(((1r,4r)-4-(diethylamino)cyclohexyl)amino)pyrimidin-5-yl)vinyl)-6-methylpyridin-2-yl)benzenesulfonamide]
5 to 50 | ≤ 1 | CN(C)C1CCC(Nc2ncc(/C=C/c3cnc(NS(=O)(=O)c4ccccc4Cl)cn3)cn2)CC1 (centres unmarked) [Compound 37, 2-chloro-N-(5-((E)-2-(2-(((1r,4r)-4-(dimethylamino)cyclohexyl)amino)pyrimidin-5-yl)vinyl)pyrazin-2-yl)benzenesulfonamide]
≤ 5 | ≤ 1 | CNC1CCC(Nc2ncc(/C=C/c3ccc(NS(=O)(=O)c4ccccc4Cl)nc3OC)cn2)CC1 (centres unmarked) [Compound 48, 2-chloro-N-(6-methoxy-5-((E)-2-(2-(((1r,4r)-4-(methylamino)cyclohexyl)amino)pyrimidin-5-yl)vinyl)pyridin-2-yl)benzenesulfonamide]
≤ 5 | ≤ 1 | COc1nc(NS(=O)(=O)c2ccccc2Cl)ccc1/C=C/c1cnc(NC2CCC(N)CC2)nc1 (centres unmarked) [Compound 9, N-(5-((E)-2-(2-(((1r,4r)-4-aminocyclohexyl)amino)pyrimidin-5-yl)vinyl)-6-methoxypyridin-2-yl)-2-chlorobenzenesulfonamide]
≤ 5 | ≤ 1 | Cc1nc(NS(=O)(=O)c2cccc(F)c2Cl)ccc1/C=C/c1cnc(NC2CCC(N(C)C)CC2)nc1 (centres unmarked) [Compound 33, 2-chloro-N-(5-((E)-2-(2-(((1r,4r)-4-(dimethylamino)cyclohexyl)amino)pyrimidin-5-yl)vinyl)-6-methylpyridin-2-yl)-3-fluorobenzenesulfonamide]
≤ 5 | ≤ 1 | CN(C)C1CCC(Nc2ncc(/C=C/c3ccc(NS(=O)(=O)c4ccccc4Cl)nc3)cn2)CC1 (centres unmarked) [Compound 36, 2-chloro-N-(5-((E)-2-(2-(((1r,4r)-4-(dimethylamino)cyclohexyl)amino)pyrimidin-5-yl)vinyl)pyridin-2-yl)benzenesulfonamide]
